What all share (assay): NCI-60 cell line screen, 48 h
Assay [1] deals with HL-60(TB) leukemia.
In assay [2] the test system is MALME-3M melanoma.
The test system of assay [3] is EKVX NSCLC.
For assay [4], the system named is OVCAR-3 ovarian.
Assay [5] deals with NCI-H23 lung.
The subject of assay [6] is KM12 colon.
Assay [7] concerns SK-MEL-28 melanoma.
The subject of assay [8] is A498 renal.
Assay [9] concerns UACC-62 melanoma.
In assay [10] the test system is HCT-116 colon.

Where “and” joins values, the source holds several entries; their conditions need not be identical. Identical values can stand only once.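 Assay format: 96-well plates, 48-hour exposure. GI50 = concentration required for 50% inhibition of growth. Definition used: TGI = concentration required for complete inhibition of growth.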

As to `COC1OC(C)C(O)CC1OS(=O)(=O)c1ccc(C)cc1` (stereo not given), the TGI in assay [1], in assay [2], in [3], in assay [4], in assay [5] and in assay [6] was above 100 µM in each case. Besides, the TGI in assay [7], in assay [8], in assay [9] and in assay [10] was above 100 µM each time.
As to `O=CN1N=C(c2ccc(Cl)cc2)CC1c1cccc(Nc2ccnc3cc(Cl)ccc23)c1` (stereo not given), the GI50 in [1] is 1.27 µM; in assay [2], 1.27 µM; in assay [3] it was 1.59 µM; in assay [4], 1.1 µM; in assay [5], 1.07 µM; in assay [6], 1.22 µM. The GI50 in assay [7] was 3.15 µM; in [8], 0.977 µM; in assay [9], 1.14 µM; in [10], 1.2 µM. Also, the TGI in assay [1] is 4.49 µM; in assay [2], 7.25 µM; in [3], above 100 µM; in [4] it was 14.5 µM; in [5], above 100 µM; in [6] it was 76.5 µM. In addition, the TGI in assay [7] is 31.2 µM; in assay [8], 8.97 µM; in assay [9], 19.6 µM; in assay [10], 4.02 µM.
For `Cc1ccc(-c2nc(N)nc3c2nnn3Cc2cccc(CO[C@H]3CCOC3)n2)o1`, the GI50 in [1], in assay [2], in assay [3], in [4], in assay [5] and in [6] was above 100 µM each time. Besides, the GI50 in [7] is above 100 µM; in assay [8], 69.9 µM; in assay [9] it was above 100 µM; in assay [10] it was above 100 µM. The TGI in [1], in [2], in [3], in assay [4], in assay [5] and in assay [6] was above 100 µM in each case. The TGI in assay [7], in [8], in assay [9] and in assay [10] was above 100 µM throughout.
As to `COc1cc(C(c2cc3c(cc2O)OCO3)N2CCCCC2)cc(OC)c1OC` (stereo not given), the TGI turned out to be 4.16 µM in assay [1]; 26.1 µM in assay [2]; 39.5 µM in assay [3]; 26.9 µM in assay [4]; 31.8 µM in assay [5]; 34 µM in assay [6]. The TGI stood at 32 µM in [7], 35.5 µM in assay [8], 30.6 µM in assay [9] and 30.4 µM in assay [10].
With `CCN=c1cc2sc3cc(NCC)c(C)cc3nc-2cc1C`, the GI50 in assay [1] is 1.66 µM; in [2], 0.782 µM; in assay [3], 0.632 µM; in [4], 0.149 µM; in [5], 0.437 µM; in assay [6], 0.654 µM. Besides, the GI50 in assay [7] is 11.7 µM; in assay [8], 14 µM; in [9], 6.88 µM; in assay [10] it was 0.361 µM. Besides, the TGI in [1] turned out to be 8.48 µM; in assay [2], 3.88 µM; in [3], 4.53 µM; in assay [4] it was 0.714 µM; in [5] it was 3.69 µM; in assay [6] it was 11 µM. Also, the TGI in assay [7] was found to be 25.6 µM; in [8], 53.4 µM; in assay [9], 21.8 µM; in [10] it was 2.01 µM.
As for `CC(=O)N/C(=C\c1cccc([N+](=O)[O-])c1)c1nc2c3c(ccc2[nH]1)C(=O)c1ccccc1C3=O`, the TGI in assay [1] is 59.8 µM; in assay [2] it was above 100 µM; in [3], above 100 µM; in assay [4], above 100 µM; in assay [5], above 100 µM; in assay [6], above 100 µM. In addition, the TGI in assay [7], in assay [8], in [9] and in assay [10] was above 100 µM in each case.
As to `Nc1nc(=S)[nH]c(C(=O)Nc2ccc(Cl)c(Cl)c2)c1-c1ccc(Cl)cc1`, the TGI in [1], in assay [2], in assay [3], in [4], in assay [5] and in assay [6] was above 100 µM in each case. The TGI in assay [7], in [8], in [9] and in assay [10] was above 100 µM in each case.
As to `CCOC(=O)NC(=O)c1cn(CCCOC(=O)CCCCCCCCCCC(=O)OCCCn2cc(C(=O)NC(=O)OCC)c(=O)n(C)c2=O)c(=O)n(C)c1=O`, the TGI in assay [1], in assay [2], in assay [3], in assay [4], in assay [5] and in assay [6] was above 100 µM in each case. Further, the TGI in assay [7], in assay [8], in assay [9] and in [10] was above 100 µM in each case.
For `O=P([O-])(O)OP(=O)([O-])O.[NH-][C@@H]1CCCC[C@H]1[NH-].[Pt+4]`, the GI50 in assay [1] was above 70.2 µM; in assay [2] it was 11.7 µM and 2.98 µM; in assay [3] it was above 100 µM; in [4], 23.8 µM and 11.2 µM; in assay [5] it was 18.4 µM and 12.3 µM; in assay [6], 50.8 µM and 24 µM. Moreover, the GI50 in assay [7] was 14.1 µM and 5.74 µM; in assay [8], > 100 µM and 18.3 µM; in assay [9] it was 9.62 µM and 4.21 µM; in [10], 5.01 µM and 2.61 µM. Besides, the TGI in [1] is above 100 µM; in assay [2], > 100 µM and 29 µM; in assay [3] it was above 100 µM; in assay [4], > 100 µM and 29.4 µM; in [5], > 100 µM and 91.1 µM; in [6], above 100 µM. The TGI in assay [7] is > 100 µM and 61.8 µM; in [8], above 100 µM; in assay [9], > 100 µM and 33.5 µM; in assay [10], above 100 µM.

The values above are taken from PubChem BioAssay (NCI).
